Data as given in US5444151A, “Platelet derived growth factor antagonists” (Ludwig Institute for Cancer Research, priority 1992, dated 1995).
“Also recorded” adds a separate entry of the source. Numbered stars: 1 amine (or outer) side, 2 acyl side, 3 side chain; on linkers, the order of the positions; unused ones are H or OH. Square brackets hold non-standard residues; d marks the D form. Peptide text beside a SMILES is read from it. X1 = CSc1ccc(-c2[nH]c3ccccc3c2C[C@H](N[*:1])C(=O)[*:2])cc1

Key:
PDGF-β receptor [1] = target: T1, PDGF-β receptor (Homo sapiens, UniProt P09619); experiment: Competition with 125I-PDGF-BB for binding to AG1518 fibroblasts (α receptor down regulated by PDGF-AA preincubation); details: AG1518 cells, competing activity
T1 construct: cultures of human foreskin fibroblast cell line AG1518; endogenous in cells; host or cells: AG1518 human foreskin fibroblasts (Human Mutant Cell Repository)
T1 sequence (P09619 33-1106): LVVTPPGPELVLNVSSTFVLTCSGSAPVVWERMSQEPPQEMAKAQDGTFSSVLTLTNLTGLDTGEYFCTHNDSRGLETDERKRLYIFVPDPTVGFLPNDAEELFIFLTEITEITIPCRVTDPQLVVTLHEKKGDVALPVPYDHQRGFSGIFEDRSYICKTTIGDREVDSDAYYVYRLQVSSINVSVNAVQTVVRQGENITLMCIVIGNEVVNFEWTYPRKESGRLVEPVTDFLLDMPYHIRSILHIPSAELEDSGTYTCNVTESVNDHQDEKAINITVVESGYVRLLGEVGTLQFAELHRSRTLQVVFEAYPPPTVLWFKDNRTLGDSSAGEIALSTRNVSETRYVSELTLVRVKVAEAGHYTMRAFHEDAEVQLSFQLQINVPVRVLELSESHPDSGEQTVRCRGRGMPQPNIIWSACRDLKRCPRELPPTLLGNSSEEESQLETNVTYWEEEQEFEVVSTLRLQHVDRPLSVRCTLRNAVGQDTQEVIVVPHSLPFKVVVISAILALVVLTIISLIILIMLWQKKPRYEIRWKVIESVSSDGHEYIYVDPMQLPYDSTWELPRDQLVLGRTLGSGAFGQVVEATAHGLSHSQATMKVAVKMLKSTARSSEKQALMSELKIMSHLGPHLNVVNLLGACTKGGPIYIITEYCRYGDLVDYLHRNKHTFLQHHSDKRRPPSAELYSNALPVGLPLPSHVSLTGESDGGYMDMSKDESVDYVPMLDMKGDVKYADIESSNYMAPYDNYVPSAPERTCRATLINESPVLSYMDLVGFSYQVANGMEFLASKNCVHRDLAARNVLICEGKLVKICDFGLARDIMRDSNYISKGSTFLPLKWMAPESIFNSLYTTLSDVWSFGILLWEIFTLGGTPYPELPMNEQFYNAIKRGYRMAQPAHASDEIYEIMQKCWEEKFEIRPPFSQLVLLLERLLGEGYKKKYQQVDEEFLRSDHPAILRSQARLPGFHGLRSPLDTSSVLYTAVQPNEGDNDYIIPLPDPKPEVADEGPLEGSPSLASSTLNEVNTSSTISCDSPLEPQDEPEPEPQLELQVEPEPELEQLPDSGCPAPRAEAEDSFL
Description: (§1) In order to test for receptor binding, cultures of human foreskin fibroblast cell line AG1518 (obtained from the Human Mutant Cell Repository), were grown to confluence in Ham's F-12 medium containing 10% newborn calf serum. Those cells which were to be used in analysis of PDGF-β receptor binding were preincubated for 60 minutes at 37° C. in 0.5 ml/well of Ham's F-12 medium, supplemented with 1 mg/ml of bovine serum albumin (BSA), and 50 ng/ml of PDGF-AA. This combination down regulates PDGF-α receptor, as per Claesson-Welsh et al., J. Biol. Chem. 264: 1742-1747 (1989).
(§2) Cells were prepared for receptor binding analyses by washing with ice cold binding buffer (phosphate buffered saline with 0.9 mM CaCl2, 0.49 mM MgSO4 and 1 mg/ml BSA). The cells were then incubated on ice for 90 minutes with different concentrations (0-100 ug/ml) of synthetic peptides (listed in Table 1, infra), in 0.5 ml of binding buffer per well. […] The labelled ligand was added and then incubated for 60 minutes at 0° C. after which the cells were washed five times with ice cold binding buffer. The washed cells were then lysed for 60 minutes at room temperature in a lysis buffer (1% Triton X-100, 10% glycerol, 20 mM Tris-HCl, pH 7.5). Solubilized radioactivity was determined in a gamma counter. Competing activities of synthetic peptides were compared to standard curves, using unlabelled ligand.
In Table 2, "+++" means <30 μM; "++" from 30-60 μM; "+" 60-150 μM; and "-", >150 μM.

PDGF-α receptor = target: T2, PDGF-α receptor (Homo sapiens, UniProt P16234); experiment: Competition with 125I-PDGF-AA for binding to AG1518 fibroblasts
T2 construct: cultures of human foreskin fibroblast cell line AG1518; endogenous in cells; host or cells: AG1518 human foreskin fibroblasts
T2 sequence (P16234 24-1089): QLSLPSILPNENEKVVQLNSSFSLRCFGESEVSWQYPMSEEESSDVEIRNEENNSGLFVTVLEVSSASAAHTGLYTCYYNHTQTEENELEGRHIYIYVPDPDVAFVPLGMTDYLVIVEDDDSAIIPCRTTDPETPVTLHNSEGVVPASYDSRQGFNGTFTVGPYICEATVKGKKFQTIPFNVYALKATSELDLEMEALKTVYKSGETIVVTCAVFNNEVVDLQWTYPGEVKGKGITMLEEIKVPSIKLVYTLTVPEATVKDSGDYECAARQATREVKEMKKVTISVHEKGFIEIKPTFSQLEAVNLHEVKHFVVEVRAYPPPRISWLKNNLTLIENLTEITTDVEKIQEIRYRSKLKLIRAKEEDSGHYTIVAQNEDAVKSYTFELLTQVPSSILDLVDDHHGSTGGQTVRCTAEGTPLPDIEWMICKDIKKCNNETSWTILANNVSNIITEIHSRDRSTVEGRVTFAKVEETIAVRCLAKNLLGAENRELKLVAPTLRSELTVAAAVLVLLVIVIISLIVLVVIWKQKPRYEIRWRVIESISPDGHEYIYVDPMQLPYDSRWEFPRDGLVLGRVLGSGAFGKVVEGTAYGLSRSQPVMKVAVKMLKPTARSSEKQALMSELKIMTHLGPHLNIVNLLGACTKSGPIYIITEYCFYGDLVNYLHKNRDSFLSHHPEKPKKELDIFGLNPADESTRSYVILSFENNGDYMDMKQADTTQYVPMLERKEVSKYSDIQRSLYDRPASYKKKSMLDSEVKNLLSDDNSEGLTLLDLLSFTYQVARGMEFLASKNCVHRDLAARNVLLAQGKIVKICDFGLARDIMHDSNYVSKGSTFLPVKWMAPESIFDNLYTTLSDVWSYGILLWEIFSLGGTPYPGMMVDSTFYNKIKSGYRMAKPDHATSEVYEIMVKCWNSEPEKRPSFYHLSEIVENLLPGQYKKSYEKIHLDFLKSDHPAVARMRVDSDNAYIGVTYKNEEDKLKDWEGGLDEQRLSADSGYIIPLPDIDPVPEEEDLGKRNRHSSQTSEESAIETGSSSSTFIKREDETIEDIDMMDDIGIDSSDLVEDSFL
Description: as §1, §2

EGF receptor [2] = target: T3, EGF receptor (Homo sapiens, UniProt P00533); experiment: Competition with 125I-EGF for binding to AG1518 fibroblasts
T3 construct: cultures of human foreskin fibroblast cell line AG1518; endogenous in cells; host or cells: human foreskin fibroblasts (AG1518)
T3 sequence (P00533 25-1210): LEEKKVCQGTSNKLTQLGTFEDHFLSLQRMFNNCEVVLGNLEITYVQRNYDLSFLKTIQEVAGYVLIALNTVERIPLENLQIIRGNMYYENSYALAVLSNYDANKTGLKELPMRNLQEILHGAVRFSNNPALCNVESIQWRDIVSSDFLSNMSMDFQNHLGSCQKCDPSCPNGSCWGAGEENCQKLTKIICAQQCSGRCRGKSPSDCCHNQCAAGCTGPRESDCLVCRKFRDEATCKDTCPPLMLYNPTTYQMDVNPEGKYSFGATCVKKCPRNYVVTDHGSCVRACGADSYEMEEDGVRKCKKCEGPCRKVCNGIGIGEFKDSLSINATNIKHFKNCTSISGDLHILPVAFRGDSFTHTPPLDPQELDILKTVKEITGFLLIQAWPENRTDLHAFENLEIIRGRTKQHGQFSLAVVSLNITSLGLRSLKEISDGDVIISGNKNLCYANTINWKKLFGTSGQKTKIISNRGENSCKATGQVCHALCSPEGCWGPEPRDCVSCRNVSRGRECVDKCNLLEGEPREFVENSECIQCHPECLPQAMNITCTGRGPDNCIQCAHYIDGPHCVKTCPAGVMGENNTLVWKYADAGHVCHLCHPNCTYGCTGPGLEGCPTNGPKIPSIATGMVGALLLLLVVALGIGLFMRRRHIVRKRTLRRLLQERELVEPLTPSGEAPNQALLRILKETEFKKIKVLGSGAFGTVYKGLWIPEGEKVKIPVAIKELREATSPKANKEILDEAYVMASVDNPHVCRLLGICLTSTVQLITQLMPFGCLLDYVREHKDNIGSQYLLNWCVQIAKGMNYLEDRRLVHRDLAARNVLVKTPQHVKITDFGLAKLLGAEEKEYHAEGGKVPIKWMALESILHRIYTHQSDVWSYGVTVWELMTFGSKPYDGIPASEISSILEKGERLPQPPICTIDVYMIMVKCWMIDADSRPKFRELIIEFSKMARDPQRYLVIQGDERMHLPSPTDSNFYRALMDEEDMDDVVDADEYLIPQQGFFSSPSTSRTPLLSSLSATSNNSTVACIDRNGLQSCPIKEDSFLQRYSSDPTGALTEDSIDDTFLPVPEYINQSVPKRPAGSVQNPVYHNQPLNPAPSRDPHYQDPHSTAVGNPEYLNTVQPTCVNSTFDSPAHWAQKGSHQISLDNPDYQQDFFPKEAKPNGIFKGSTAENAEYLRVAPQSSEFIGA
Description: as §1, §2

[3] = tested on: human foreskin fibroblasts; experiment: Ligand stimulated [3H]thymidine incorporation; assay type: cell-based
Description: The possible role of peptide 16T as an antagonist for PDGF activity in vivo was investigated. Following the methodology of Betsholtz et al., J. Cell Physiol 118: 203-210 (1984), the disclosure of which is incorporated by reference, [^3 H] thymidine incorporation by human fibroblasts in the presence of various peptides was studied.

[4] = tested on: human foreskin fibroblast cells; experiment: Inhibition of 125I-ligand internalization and degradation (TCA non-precipitatable radioactivity); assay type: cell-based; details: four hours at 37° C.
Description: To do this, confluent human foreskin fibroblast cells in 12 well dishes were washed once with 1.0 ml of Ham's F-12 medium, supplemented with 1 mg/ml BSA. As described supra, those cells to be tested later for ^125 I-PDGF-BB degradation were preincubated with PDGF-AA to down regulate α receptors. […] The mixtures were incubated for four hours at 37° C., the incubation medium was removed, and then precipitated with trichloroacetic acid at 10% final concentration. The amount of trichloroacetic acid non-precipitatable radioactivity in cell culture medium was taken as an estimate of ligand degradation--i.e., it represents ligand that had been internalized, degraded and released into the medium in the form of free ^125 I, ^[…] or low molecular weight fragments. This parameter was defined after four hours of incubation at 37° C.

PDGF-α or β receptors = experiment: PDGF receptor internalization and down regulation; assay type: cell-based, human; details: four hours at 37° C.; surface receptors estimated with 125I-PDGF-BB
Description: As binding of PDGF to receptors leads to receptor internalization and down regulation, investigations were carried out to determine whether the interaction of PDGF and peptide […] led to the internalization and down regulation of receptors. To test this, confluent cells, as described supra, were washed once with binding buffer at 37° C., followed by incubation with different concentrations of synthetic peptide (0.5 ml of PBS containing 1 mg/ml BSA). Following this, the cells were incubated at 37° C. for four hours, followed by washing with 1 ml of ice cold buffer consisting of 20 mM Na-acetate, 150 mM NaCl, 0.2% BSA adjusted to pH 3.7 with acetic acid. The cells were then incubated for 10 minutes on ice in buffer, followed by two washings with 1 ml binding buffer, at pH 7.4. The number of PDGF receptors on the cell surface was estimated by incubation with ^125 I-PDGF-BB (~50,000cpm) in 0.5 ml binding buffer for 60 minutes on ice, followed by washing, lysis and determination of cell bound radioactivity.

PDGF receptors = experiment: PDGF-BB induced receptor dimerization and autophosphorylation in intact cells; assay type: cell-based, human; details: PDGF-BB 300 ng/ml, intact fibroblasts
Description: (§3) Confluent human foreskin fibroblast cells were used (25 cm^2 dishes of cultures). The cells were washed twice with binding buffer, as described supra, with 1 mg/ml BSA added thereto. This was followed by 90 minutes of incubation with one of synthetic peptides 16, […], 20 and […] on ice. […] A dimerization assay was then carried out, basically following Eriksson et al., Growth Factors 6: 1-14 (1992). Essentially, receptors were cross linked for 20 minutes at room temperature in 1 mM BS^3 (Bis(sulfosuccinimidyl)suberate) in lysis buffer (0.5% Triton X-100, 0.5% deoxycholate, […], pH 7.4, 150 mM NaCl, 10 mM EDTA, 1 mM PMSF (phenylmethylsulfonyl fluoride), 1% Trasylol (aprotinin), 100 μM ortovandat, a phosphatase inhibitor). Cross linking was quenched by adding 70 mM methylammonium chloride for 10 minutes. Samples were then subjected to SDS gel electrophoresis in 4% slab gels, followed by electroblotting on to nitrocellulose membranes. The blocked membranes were incubated for two hours with affinity purified phosphotyrosine antibodies (Ek et al., J. Biol. Chem. 259: 1145-11152 (1984)), followed by three washes. Blots were then incubated for 45 minutes with peroxidase conjugated, affinity purified swine antirabbit IgG immunoglobulin. After an additional three washes, complexes were visualized using the ECL developing system.

EGF receptor [5] = target: T3, EGF receptor; experiment: EGF induced receptor dimerization and autophosphorylation in intact cells; assay type: cell-based; details: EGF 300 ng/ml, intact fibroblasts
Description: as §3

PDGF-β receptor [6] = target: T4, PDGF-β receptor (Sus scrofa, UniProt A0A8W4FFG6); experiment: Autophosphorylation and dimerization of partially purified PDGF-β receptor; assay type: biochemical, porcine; details: nearly complete for 16T, complete for 16; about 100 ng receptor, 100 ng PDGF-BB, 40 ul
T4 construct: from Triton X-100 solubilized porcine uterus membranes and purified up to the Mono-Q chromatography step; from tissue; host or cells: porcine uterus membranes
T4 sequence (A0A8W4FFG6 32-1102): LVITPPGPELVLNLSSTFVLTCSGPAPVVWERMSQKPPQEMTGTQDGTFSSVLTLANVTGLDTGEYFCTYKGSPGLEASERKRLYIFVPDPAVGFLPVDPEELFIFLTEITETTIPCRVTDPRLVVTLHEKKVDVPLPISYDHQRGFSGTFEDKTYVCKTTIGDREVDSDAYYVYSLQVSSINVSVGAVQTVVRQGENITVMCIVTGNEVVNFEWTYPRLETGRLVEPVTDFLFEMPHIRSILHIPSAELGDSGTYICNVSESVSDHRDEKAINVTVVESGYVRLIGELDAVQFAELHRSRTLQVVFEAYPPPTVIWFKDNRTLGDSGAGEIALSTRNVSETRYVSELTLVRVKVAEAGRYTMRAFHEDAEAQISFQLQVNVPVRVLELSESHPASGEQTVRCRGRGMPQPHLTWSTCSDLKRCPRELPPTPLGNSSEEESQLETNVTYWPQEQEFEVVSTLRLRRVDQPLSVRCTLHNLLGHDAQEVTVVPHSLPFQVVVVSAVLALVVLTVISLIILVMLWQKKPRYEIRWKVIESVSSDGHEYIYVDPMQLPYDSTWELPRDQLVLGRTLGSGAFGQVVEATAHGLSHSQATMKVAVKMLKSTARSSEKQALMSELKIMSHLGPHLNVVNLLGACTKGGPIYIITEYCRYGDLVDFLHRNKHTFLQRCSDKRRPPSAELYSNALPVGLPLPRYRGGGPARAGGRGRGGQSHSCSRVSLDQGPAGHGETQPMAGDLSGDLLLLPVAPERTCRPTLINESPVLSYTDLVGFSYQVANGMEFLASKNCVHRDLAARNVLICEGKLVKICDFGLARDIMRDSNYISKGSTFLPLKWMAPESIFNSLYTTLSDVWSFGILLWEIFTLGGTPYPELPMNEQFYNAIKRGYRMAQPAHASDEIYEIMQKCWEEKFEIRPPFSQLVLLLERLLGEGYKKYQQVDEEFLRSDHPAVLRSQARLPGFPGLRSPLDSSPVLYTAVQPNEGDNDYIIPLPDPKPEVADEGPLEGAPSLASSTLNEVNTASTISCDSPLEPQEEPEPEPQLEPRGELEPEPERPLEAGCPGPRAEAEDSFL
Description: A preparation of PDGF-β receptor, from Triton X-100 solubilized porcine uterus membranes and purified up to the Mono-Q chromatography step of Ronnstrand et al., J. Biol. Chem. 262: 2929-2932 (1987), was made, and the autophosphorylation assay described therein was carried out.
Approximately 100 ng of the receptor was incubated for 5 minutes at 0° C. with peptide 16T or peptide 20, at different concentrations. […] Four ul of 150 μM [^32 P]ATP (containing 5×10^6 cpm of radioactivity) was added, followed by an additional 10 minutes of incubation at 0° C. Incorporation of radioactivity was terminated by adding 5 μl of 15 mM unlabelled ATP and 5 μl of 40 mM phenylphosphate. Samples were cross linked by incubating with 0.5 mM DSS (12.5 mM, in dimethyl sulfoxide) for 30 minutes at room temperature. The cross linking reaction was blocked by adding 50 mM methylammonium chloride, 20 mM Hepes, pH 7.4.

**Q.** Which results are given for `CC[C@H](C)[C@H](NC(=O)[C@H](CCC(=O)O)NC(=O)[C@H](Cc1c(-c2ccc(SC)cc2)[nH]c2ccccc12)NC(=O)[C@@H](NC(=O)[C@H](CC(C)C)NC(=O)[C@H](Cc1ccccc1)NC(=O)[C@H](CC(N)=O)NC(=O)[C@H](C)N)C(C)C)C(=O)N[C@H](C(=O)N[C@@H](CCCNC(=N)N)C(=O)N[C@@H](CCCCN)C(=O)N[C@@H](CCCCN)C(=O)N1CCC[C@H]1C(=O)O)C(C)C` [*16T, Ala Asn Phe Leu Val Xaa Glu Ile Val Arg Lys Lys Pro] (H-ANFLV[X1]EIVRKKP-OH; N-terminus and C-terminus assumed)?
**A.** Receptor competing activity, PDGF-BB binding (in words) (PDGF-β receptor [1]): effective competitor; also recorded: far more efficient in competing with PDGF for receptor binding; Receptor competing activity, PDGF-AA binding (in words) (PDGF-α receptor; AG1518 cells): higher activity; also recorded: effective competitor; 50% competition for receptor binding (PDGF-α receptor; α receptor): Forty-four; Competition for binding of 125I-EGF to the EGF receptor (in words) (EGF receptor [2]): none of peptides 16, 16T, 20 and 20T compete; Effect on ligand stimulated [3H]thymidine incorporation (in words) ([3]; PDGF-AA, PDGF-BB or EGF stimulation): did inhibit PDGF-AA and PDGF-BB induced mitogenicity, but also EGF induced mitogenicity; Effect on background [3H]thymidine incorporation (in words) ([3]; no ligand): lowered background incorporation of [^3 H] thymidine dramatically; [3H]thymidine incorporation, Control ([3]; peptide present, no ligand, mean of duplicates): 46 cpm; [3H]thymidine incorporation, EGF ([3]; peptide present, stimulated with EGF, mean of duplicates): 119 cpm; [3H]thymidine incorporation, PDGF-AA ([3]; peptide present, stimulated with PDGF-AA, mean of duplicates): 90 cpm; [3H]thymidine incorporation, PDGF-BB ([3]; peptide present, stimulated with PDGF-BB, mean of duplicates): 102 cpm; Inhibition of 125I-PDGF-AA degradation (in words) [4]: most effective; Inhibition of 125I-PDGF-BB degradation (in words) ([4]; α receptors down regulated): most potent; Down regulation of PDGF receptors (in words) (PDGF-α or β receptors): did not downregulate; Inhibition of PDGF induced autophosphorylation and dimerization (PDGF receptors): about 55%; Effect on EGF induced autophosphorylation and dimerization (in words) (EGF receptor [5]): no effect; Amount of peptide giving complete inhibition of dimerization and autophosphorylation (PDGF-β receptor [6]): 5 µg
